Assay [1] concerns CRMP2. In words: CRMP2 phosphorylation assay. Particulars: E16 hippocampal neurons treated for 7 days. It is filed as cell-based, rat. The method, then:
GSK-3 phosphorylation regulates CRMP2 which is involved in the control of axon outgrowth and branching (Yoshimura et al. 2005 Cell, Kim et al. 2006 Neuron). Phosphorylation of CRMP2 by GSK-3 reduces CRMP2 binding to microtubules and thereby reduces axon elongation and branching. Conversely, inhibition of GSK-3, especially at levels that selectively affect TYR residue autophosphorylation, enhances these phenotypes. Compounds are tested in E16 rat hippocampal or cortical neurons to determine the ability to increase the level of axonal branching. 1 mg/ml stock of PDL is diluted into 100 μg/ml in DI water. The glass coverslips are coated for at least 1 hour at 37° C. prior to doing the dissection. PDL is aspirated and the plates are rinsed with PBS and air-dried in hood. Cortical or hippocampal lobes are combined with 9 mL of Base media (Neurobasal+Pen/Strep) and put on ice. 1 mL of 10× trypsin solution is added and the mixture is swirled gently. The tissue is then digested via incubation in a 37° C. waterbath for 20 minutes. After 20 minutes, 10 μl/ml DNase (100 μL DNase) is added and the mixture is incubated for another 5 minutes. The cells are spun at 1000 rpm for 1 minute. The enzyme solution is then removed without removing any of the brain fragments sitting on the bottom. […] The cells are counted in a hemacytometer and seeded at 50,000 cells/well in a 12 well plate. […]

Assay [2] concerns human umbilical vein endothelial cells (HUVEC). The experiment in a line: In Vitro Model of Angiogenesis Using HUVEC and Skin Fibroblasts. The settings on record: HUVEC cultures. It counts as cell-based. An excerpt:
Compounds are screened for the ability to enhance angiogenesis in human umbilical vein endothelial cells (HUVEC). This method, adapted from Nakatsu et al. Microvas. Res. 2003, describes a protocol that recapitulates the major events essential for new vessel growth: budding, cell migration, cell proliferation, lumen formation, branching, and anastomosis. HUVEC are used between P3 and P4. HUVEC are mixed with dextran coated cytodex 3 micro-carriers (Amersham Pharmacia) at a concentration of 400 HUVEC per bead in 1 ml of EGM-2 (2% FBS) medium (Clonetics). Beads with cells are then shaken gently every 20 min for 4 hr at 37° C. and 5% CO2. After incubating, beads with cells are transferred to a T-25 tissue culture flask and left for 12-16 hr in 5 ml of EGM-2 at 37° C. 5% CO2. The following day beads with cells are washed three times with EGM-2 and re-suspended at a concentration of 200 cell-coated beads/ml in 2.5 mg/ml of fibrinogen (Sigma) with 0.15 U/ml of aprotinin (Sigma) at a pH of 7.4. 500 ul of fibrinogen/bead solution is then added to 0.625 U of thrombin (Sigma) in one well of a 24 well tissue culture plate. Fibrinogen/Bead solution is allowed to clot for 5 min at room temperature and then at 37° C. 5% CO2 for 20 min. 1 ml of EGM-2 with 0.15 U/ml of aprotinin is then added to each well and equilibrated with the fibrin clot for 30 min at 37° C. and 5% CO2. Next, media is removed from the well and replaced with 1 ml of fresh medium. 20,000 skin fibroblasts (SF ATCC Detroit 551) are plated on top of the clot and medium is changed every other day. […] Angiogenesis is scored by quantification of images captured on an inverted microscope at 10× and 20× magnification for vessel length, number of vessels and branches per bead using NIH Image J software. […] YFP positive HUVEC are then cultured as described above and quantification of vessel formation is determined by calculating the area under the threshold fluorescence using NIH Image J software. In both cases, enhanced angiogenesis is determined by comparing compound treated cultures with a DMSO control culture at the same time point.

Where [3] appears, read: concentrations that have been shown to induce β-catenin.

The values below come from US8518953B2, “Aminopyrimidines useful as inhibitors of protein kinases” (Vertex Pharmaceuticals Incorporated, priority 2007, dated 2013).

Structures are written as SMILES.

Regarding `Cc1nc(-c2ccccc2Cl)nc(Nc2n[nH]c3ncc(F)cc23)c1C` [Compound I-1, N-(2-(2-chlorophenyl)-5,6-dimethylpyrimidin-4-yl)-5-fluoro-1H-pyrazolo[3,4-b]pyridin-3-amine], in assay [1], the “Inhibition of GSK-3 phosphorylation of substrate CRMP-2” value is on record as “correlated with inhibition of GSK-3 pTYR”. Moreover, the “vessel and network formation” value in assay [2] (10 nM, 7 days) is “increase vessel and network formation”. Further, in assay [2] (setting [3]), the cell proliferation result was “increased cell proliferation was observed” and the vessel formation entry was “vessel formation was inhibited”.
